Test results from publication PMC6480704, “Antiproliferative Aspidosperma-Type Monoterpenoid Indole Alkaloids from Bousigonia mekongensis Inhibit Tubulin Polymerization” (Molecules, 2019).
Entries after “also recorded” stand apart in the source; their conditions may differ. Where two headings read alike, the source gives them in different places.

Columns and labels:
[1] = test system: MDA-MB-231 (triple negative breast cancer); assay: Antiproliferative SRB assay, MDA-MB-231; type: cell-based; conditions: Homo sapiens, read-out: IC50 MDA-MB-231
Description: (§1) We tested the fourteen known aspidosperma-type alkaloids (1–14) against chemosensitive KB (originally isolated from epidermoid carcinoma of the nasopharynx) and P-gp over-expressing multidrug-resistant (MDR) KB subline KB-VIN, as well as three additional human cancer cell lines, A549 (lung carcinoma), MDA-MB-231 (triple negative breast cancer), and MCF-7 (estrogen receptor-positive breast cancer), using a sulforhodamine B (SRB) assay (Table 1).
(§2) Antiproliferative activity was determined by the sulforhodamine B (SRB) colorimetric assay as previously described. In brief, human tumor cell lines were cultured in RPMI-1640 medium containing 2 mM l-glutamine and 25 mM HEPES (Gibco), supplemented with 10% fetal bovine serum (Speciality Media), 100 µg/mL streptomycin, 100 IU/mL penicillin, and 0.25 µg/mL amphotericin B (Corning). MDR stock cells (KB-VIN) were maintained in the presence of 100 nM vincristine (VIN) (Sigma-Aldrich, Saint Louis, MI, USA).
(§3) Freshly trypsinized cell suspensions were seeded in 96-well microtiter plates at densities of 4000–11,000 cells per well (based on the cell lines) with compounds. After 72 h in culture with test compounds, cells were fixed in 10% trichloroacetic acid followed by staining with 0.04% sulforhodamine B (Sigma-Aldrich). The bound SRB was solubilized in 10 mM Tris-base and the absorbance at 515 nm was measured using a Microplate Reader (ELx800, Bio-Tek Instruments, Winooski, VT, USA) operated by Gen5 software (BioTek) after solubilizing the protein-bound dye with 10 mM Tris base. The mean IC50 is the concentration of agent that reduced cell growth by 50% compared with vehicle (DMSO) control under the experimental conditions and is the average from at least three independent experiments with duplicate samples.
(§4) The following human tumor cell lines were used in the assay: A549 (lung carcinoma), MDA-MB-231 (triplen-egative breast cancer), KB (originally isolated from epidermoid carcinoma of the nasopharynx), KB-VIN (VIN-resistant KB subline showing MDR phenotype by overexpressing P-gp), MCF-7 (estrogen receptor (ER)-positive, HER2-negative breast cancer). […] All cell lines were obtained from the Lineberger Comprehensive Cancer Center (UNC-CH) or from ATCC (Manassas, VA), except KB-VIN, which was a generous gift from Professor Y.-C. Cheng (Yale University). Paclitaxel was purchased from Sigma-Aldrich.

[2] = test system: KB-VIN (VIN-resistant KB subline showing MDR phenotype by overexpressing P-gp); assay: Antiproliferative SRB assay, KB-VIN; conditions: for IC50: Homo sapiens, KBVIN, 72 h, read-out: IC50 KB-VIN; for fold higher concentration required against KB-VIN cells: KB-VIN compared with chemosensitive cells
Description: as §1, §2, §3, §4

[3] = test system: KB (originally isolated from epidermoid carcinoma of the nasopharynx); assay: Antiproliferative SRB assay, KB; type: cell-based; conditions: Homo sapiens, 72 h, read-out: IC50 KB
Description: as §1, §2, §3, §4

[4] = test system: A549, MDA-MB-231, KB, KB-VIN, and MCF-7; assay: Antiproliferative SRB assay, values stated across several cell lines; type: cell-based, human; conditions: for antiproliferative activity (in words): five human tumor cell lines including MDR subline KB-VIN
Description: as §1, §2, §3, §4

[5] = test system: A549 (lung carcinoma); assay: Antiproliferative SRB assay, A549; type: cell-based; conditions: Homo sapiens, read-out: IC50 A549
Description: as §1, §2, §3, §4

[6] = test system: MCF-7 (estrogen receptor-positive breast cancer); assay: Antiproliferative SRB assay, MCF-7; type: cell-based; conditions: Homo sapiens, read-out: IC50 MCF-7
Description: as §1, §2, §3, §4

[7] = test system: KB-VIN cells; assay: Immunofluorescence staining of α-tubulin, pH3 and DNA; type: cell-based, human; conditions: 24 h, 3 × IC50
Description: (§5) Figure 2 Mitotic defects in KB-VIN cells treated by compounds. […] Cell cycle distributions (sub-G1, G1, S, G2/M) were analyzed using flow cytometry after staining cells with propidium iodide (PI). […] Fixed cells were stained with antibodies to α-tubulin (green) and phospho-histone H3 (pH3, red), and DAPI was used for DNA (blue). Stained cells were observed by confocal fluorescence microscope. The represented image is a projection of 15~20 optical sections acquired at 0.5~1 µm intervals. […] Bar, 0.025 mm. Additional images are available in Supplementary Figure S1.
To determine whether the cell cycle arrest was due to an antimicrotubule effect, cells treated with compounds were analyzed by immunocytochemistry using antibodies to α-tubulin for microtubules and mitotic spindles, Ser10-phosphorylated histone H3 (pH3) for the condensed chromatins and 4′,6-diamidino-2-phenylindole (DAPI) for DNA. […] Thus, we concluded that these alkaloids are tubulin polymerization inhibitors.
Immunocytochemical analysis was performed as previously described. […] After treatment of cells with the agent for 24 h, cells were fixed with 4% paraformaldehyde in PBS and permeabilized with 0.5% Triton X-100 in PBS. Fixed cells were labeled with mouse monoclonal antibody to α-tubulin (B5-1-2, Sigma) and rabbit IgG to Ser10-phosphorylated histone H3 (p-H3) (#06570, EMD Millipore), followed by FITC-conjugated antibody to mouse IgG (Sigma) and Alexa Fluor 549-conjugated antibody to rabbit IgG (Life Technologies). Nuclei were labeled with DAPI (Sigma). Fluorescently-labeled cells were observed using a confocal microscope (Zeiss, LSM700) with ZEN (black edition) software (Zeiss). The 15~20 optical sections acquired at 0.5~1 µm intervals were stacked and reconstructed using ZEN (black edition) software. Experiments were repeated at least twice for each compound. Final images were prepared using Adobe Photoshop CS3.

[8] = test system: KB-VIN cells; assay: Cell cycle analysis by flow cytometry (PI staining); type: cell-based, human; conditions: 24 h, 1 × IC50 or 3 × IC50
Description: KB-VIN cells were treated with compounds 3, 4, 6, 7, and 13 at their IC50 (1 × IC50) or three-fold IC50 (3 × IC50) concentration, and the cell cycle progression was analyzed by flow cytometer (Figure 2A).
as §5
KB-VIN cells were seeded in 12-well plates at a density of 1 × 10^5 per well and incubated overnight. […] The DNA contents of stained cells were analyzed by flow cytometer (LSRFortessa, BD Biosciences) controlled by FACSDiva software (BD Biosciences). Paclitaxel (PXL) was used at 3 or 6 µM. […] Experiments were repeated a minimum of two times.

[9] = Homo sapiens, A549, KB, KB-VIN, range stated for the group of compounds, read-out: IC50 values ranging over A549, KB and KB-VIN cells
[10] = five human tumor cell lines, read-out: IC50 range over the cell lines tested
[11] = MDA-MB-231, SRB assay, 72 h, positive controls, unit nM
[12] = SRB assay, positive controls, unit nM
[13] = A549, SRB assay, 72 h, positive controls, unit nM
[14] = MCF7, SRB assay, 72 h, positive controls, unit nM

| Compound | IC50 ([1]; MDA-MB-231, SRB assay, 72 h) [nM] | IC50 [2] [µM] | IC50 ([3]; SRB assay) [nM] | antiproliferative activity (in words) [4] | IC50 ([5]; A549, SRB assay, 72 h) [nM] | IC50 ([6]; MCF7, SRB assay, 72 h) [nM] | other results |
| --- | --- | --- | --- | --- | --- | --- | --- |
| CC[C@]12C=CCN3CC[C@]4(C(=C(C(=O)OC)C1)Nc1cc(OC)ccc14)[C@@H]32 [Compound 12, 11-methoxytabersonine] | 6800 ± 1100 | 5.8 ± 0.1 | 5400 ± 400 | exhibited antiproliferative activity against all cell lines | 5200 ± 100 |  | IC50 ([6]; MCF7, 72 h): 8200 ± 900 nM |
| CC[C@@]12CC(C(=O)OC)=C3Nc4cc(OC)ccc4[C@@]34CCN(C[C@H]3O[C@H]31)[C@@H]24 [Compound 9, lochnerinine] | 6000 ± 800 | 0.7 | 900 | exhibited antiproliferative activity against all cell lines | 800 | 10200 ± 500 | fold rise in potency by a methoxy group at C-11 ([4]; 6 compared with 5, 9 compared with 8): ~ 60 fold; IC50 [4, 9]: 0.5 to 0.9 µM |
| COC(=O)C1=C2Nc3cc(O)ccc3C23CCN2CC=CC(C(C)OC(C)=O)(C1)C23 [Compound 13, 19-(R)-acetoxy-11-hydroxytabersonine] | 900 | 0.7 | 700 | exhibited antiproliferative activity against all cell lines; also recorded: significant antiproliferative effects against all five tumor cell lines | 700 ± 100 | 6700 ± 100 | IC50 [4, 9]: 0.5 to 0.9 µM; IC50 [4, 10]: 0.6 to 6.7 µM; microtubule / mitotic spindle morphology [7]: dotted tubulin aggregations without spindles; effect on cell cycle progression [8]: accumulation of cells in the G2/M phase; also recorded: cell cycle arrest at G2/M |
| CC(=O)O[C@H]1C(=O)[C@@]2(C)[C@H]([C@H](OC(=O)c3ccccc3)[C@]3(O)C[C@H](OC(=O)[C@H](O)[C@@H](NC(=O)c4ccccc4)c4ccccc4)C(C)=C1C3(C)C)[C@]1(OC(C)=O)CO[C@@H]1C[C@@H]2O [PXL, paclitaxel, reference compound] |  | 2.36 ± 0.0595 |  |  |  |  | IC50 [1, 11]: 7 ± 0.9 nM; fold higher concentration required against KB-VIN cells [2]: 600 fold; IC50 [3, 12]: 3.7 ± 1.1 nM; IC50 [5, 13]: 4.5 ± 0.9 nM; IC50 [6, 14]: 8.8 ± 1 nM |
| CC[C@@]12CC(C(=O)OC)=C3Nc4ccccc4[C@@]34CCN(C[C@H]3O[C@H]31)[C@@H]24 [Compound 8, pachysiphine] | 34500 ± 200 | > 40 | > 40000 | essentially inactive | 27700 ± 100 | > 40000 |  |
| COC(=O)C1=C2Nc3ccccc3C23CCN2CC=CC(C(C)OC(C)=O)(C1)C23 [Compound 11, 19-(R)-acetoxytabersonine] | > 40000 | > 40 | 26500 ± 2500 | essentially inactive | > 40000 | > 40000 | IC50 [4, 10]: > 26.5 µM |
| CC[C@]12C=CCN3CC[C@]4(C(=C(C(=O)OC)C1)Nc1ccccc14)[C@@H]32 [Compound 1, tabersonine] |  | 7.4 ± 0.3 |  | exhibited antiproliferative activity against all cell lines |  |  | IC50 ([1]; MDA-MB-231, 72 h): 5900 nM; IC50 [3]: 5500 nM; IC50 ([5]; A549, 72 h): 6900 ± 100 nM; IC50 ([6]; MCF7, 72 h): 7200 ± 400 nM |
| CC[C@]12C=C[C@@H](CC(C)=O)N3CC[C@]4(C(=C(C(=O)OC)C1)Nc1ccccc14)[C@@H]32 [Compound 3, 3α-acetonyl-tabersonine] | 900 | 0.6 ± 0.1 | 600 | exhibited antiproliferative activity against all cell lines; also recorded: significant antiproliferative effects against all five tumor cell lines | 600 | 2200 ± 200 | IC50 [4, 9]: 0.5 to 0.9 µM; microtubule / mitotic spindle morphology [7]: dotted tubulin aggregations without spindles; effect on cell cycle progression [8]: accumulation of cells in the G2/M phase; also recorded: cell cycle arrest at G2/M |
| COC(=O)C1=C2Nc3ccccc3C23CCN2CC=CC(C(C)O)(C1)C23 [Compound 10, 19-(R)-hydroxytabersonine] | > 40000 | > 40 | > 40000 | essentially inactive | > 40000 | > 40000 |  |
| CC[C@]1(O)C[C@H]2CN(CCc3c([nH]c4ccccc34)[C@@](C(=O)OC)(c3cc4c(cc3OC)N(C=O)[C@H]3[C@@](O)(C(=O)OC)[C@H](OC(C)=O)[C@]5(CC)C=CCN6CC[C@]43[C@@H]65)C2)C1 [VIN, vincristine, reference compound] |  | 2.48 ± 0.0282 |  |  |  |  | IC50 [1, 11]: 32 ± 0.5 nM; fold higher concentration required against KB-VIN cells [2]: 600 fold; IC50 [3, 12]: 4.4 ± 0.1 nM; IC50 [5, 13]: 22.9 ± 2.4 nM; IC50 [6, 14]: 7.3 ± 0.2 nM; microtubule / mitotic spindle morphology [7]: with multipolar spindles |
| COC(=O)C1=C2Nc3cc(OC)ccc3C23CCN2CC=CC(C(C)OC(C)=O)(C1)C23 [Compound 14, 19-(R)-acetoxy-11-methoxytabersonine] | > 40000 | > 40 | > 40000 | essentially inactive | > 40000 | > 40000 |  |
| CC[C@]12CCCN3CC[C@]4(C(=C(C(=O)OC)C1)Nc1ccccc14)[C@@H]32 [Compound 2, vincadifformine] | > 40000 | > 40 | > 40000 | essentially inactive | > 40000 | > 40000 |  |
